The source of these data is article PMC7380940, “Alterations in the intrinsic properties of striatal cholinergic interneurons after dopamine lesion and chronic L-DOPA” (eLife, 2020).

The test system of the assay is T1, Hyperpolarization-activated cyclic nucleotide-gated (HCN) channels (native, isoform not resolved).
T1 construct: native HCN current (Ih) in striatal cholinergic interneurons, acute slices
The experiment in a line: whole-cell voltage-clamp of Ih in striatal slices, concentration-response. The assay is classed as cell-based, Mus musculus. The source says:
whole-cell voltage-clamp of Ih in striatal slices, concentration-response on Hyperpolarization-activated cyclic nucleotide-gated (HCN) channels (native, isoform not resolved) | Dependence of Ih density (as measured on Figure 3E) on ZD7288 concentration.

Regarding `CC/[N+](c1ccccc1)=c1\cc(NC)n(C)c(C)n1` [ZD7288], the IC50 worked out at 1.4 µM.

The term IC50 denotes the concentration that gives 50% inhibition. A higher IC50 goes with weaker potency in that assay.
